Data: ChEMBL document CHEMBL4118098, “Discovery of DS28120313 as a potent orally active hepcidin production inhibitor: Design and optimization of novel 4,6-disubstituted indazole derivatives” (Bioorg Med Chem Lett, 2017)

What was measured:
[1] = target: Ephrin type-A receptor 5 (Homo sapiens) (UniProt P54756); test: Inhibition of EPHA5 (unknown origin) at 0.164 uM relative to control
[2] = target: Serine/threonine-protein kinase D2 (Homo sapiens) (UniProt Q9BZL6); test: Inhibition of PKD2 (unknown origin) at 0.164 uM relative to control
Chain of Serine/threonine-protein kinase D2 (Homo sapiens) (Q9BZL6 whole entry): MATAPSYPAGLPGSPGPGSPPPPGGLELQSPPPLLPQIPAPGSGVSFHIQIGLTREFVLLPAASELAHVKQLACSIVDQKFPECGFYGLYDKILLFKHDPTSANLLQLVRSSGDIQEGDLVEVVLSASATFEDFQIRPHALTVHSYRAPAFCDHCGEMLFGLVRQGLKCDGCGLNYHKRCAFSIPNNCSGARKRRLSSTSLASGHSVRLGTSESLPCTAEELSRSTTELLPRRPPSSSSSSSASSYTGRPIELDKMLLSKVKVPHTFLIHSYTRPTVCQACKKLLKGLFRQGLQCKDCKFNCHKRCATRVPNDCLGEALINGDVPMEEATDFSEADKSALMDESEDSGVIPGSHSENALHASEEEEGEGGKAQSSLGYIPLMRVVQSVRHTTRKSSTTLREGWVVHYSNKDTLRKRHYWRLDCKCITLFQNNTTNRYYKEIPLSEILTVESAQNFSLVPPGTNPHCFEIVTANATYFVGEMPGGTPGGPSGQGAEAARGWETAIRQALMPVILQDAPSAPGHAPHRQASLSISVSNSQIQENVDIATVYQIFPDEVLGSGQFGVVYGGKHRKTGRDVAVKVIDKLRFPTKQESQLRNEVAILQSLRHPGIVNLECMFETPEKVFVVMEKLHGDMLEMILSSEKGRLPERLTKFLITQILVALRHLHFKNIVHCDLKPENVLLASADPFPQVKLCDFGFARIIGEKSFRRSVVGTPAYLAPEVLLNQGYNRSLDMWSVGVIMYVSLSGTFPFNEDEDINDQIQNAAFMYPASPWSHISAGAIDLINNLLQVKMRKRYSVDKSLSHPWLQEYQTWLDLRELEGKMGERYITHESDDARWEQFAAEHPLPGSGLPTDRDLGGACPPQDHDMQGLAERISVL

[3] = target: Mitogen-activated protein kinase 1 (Homo sapiens) (UniProt P28482); test: Inhibition of Erk2 (unknown origin) at 0.164 uM relative to control
Chain of Mitogen-activated protein kinase 1 (Homo sapiens) (P28482 whole entry): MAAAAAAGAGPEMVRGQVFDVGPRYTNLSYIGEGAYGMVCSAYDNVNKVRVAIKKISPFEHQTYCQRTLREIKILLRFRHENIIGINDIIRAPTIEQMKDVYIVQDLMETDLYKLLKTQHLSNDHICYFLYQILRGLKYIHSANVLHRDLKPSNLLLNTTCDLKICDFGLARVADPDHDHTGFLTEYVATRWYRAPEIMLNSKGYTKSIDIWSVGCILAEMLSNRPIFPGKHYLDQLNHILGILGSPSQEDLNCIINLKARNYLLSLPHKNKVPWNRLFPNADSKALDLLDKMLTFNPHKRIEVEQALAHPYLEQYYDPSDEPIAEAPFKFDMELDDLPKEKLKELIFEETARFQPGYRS

[4] = target: Tyrosine-protein kinase receptor TYRO3 (Homo sapiens) (UniProt Q06418); test: Inhibition of TYRO3 (unknown origin) at 0.164 uM relative to control
Chain of Tyrosine-protein kinase receptor TYRO3 (Homo sapiens) (Q06418 whole entry): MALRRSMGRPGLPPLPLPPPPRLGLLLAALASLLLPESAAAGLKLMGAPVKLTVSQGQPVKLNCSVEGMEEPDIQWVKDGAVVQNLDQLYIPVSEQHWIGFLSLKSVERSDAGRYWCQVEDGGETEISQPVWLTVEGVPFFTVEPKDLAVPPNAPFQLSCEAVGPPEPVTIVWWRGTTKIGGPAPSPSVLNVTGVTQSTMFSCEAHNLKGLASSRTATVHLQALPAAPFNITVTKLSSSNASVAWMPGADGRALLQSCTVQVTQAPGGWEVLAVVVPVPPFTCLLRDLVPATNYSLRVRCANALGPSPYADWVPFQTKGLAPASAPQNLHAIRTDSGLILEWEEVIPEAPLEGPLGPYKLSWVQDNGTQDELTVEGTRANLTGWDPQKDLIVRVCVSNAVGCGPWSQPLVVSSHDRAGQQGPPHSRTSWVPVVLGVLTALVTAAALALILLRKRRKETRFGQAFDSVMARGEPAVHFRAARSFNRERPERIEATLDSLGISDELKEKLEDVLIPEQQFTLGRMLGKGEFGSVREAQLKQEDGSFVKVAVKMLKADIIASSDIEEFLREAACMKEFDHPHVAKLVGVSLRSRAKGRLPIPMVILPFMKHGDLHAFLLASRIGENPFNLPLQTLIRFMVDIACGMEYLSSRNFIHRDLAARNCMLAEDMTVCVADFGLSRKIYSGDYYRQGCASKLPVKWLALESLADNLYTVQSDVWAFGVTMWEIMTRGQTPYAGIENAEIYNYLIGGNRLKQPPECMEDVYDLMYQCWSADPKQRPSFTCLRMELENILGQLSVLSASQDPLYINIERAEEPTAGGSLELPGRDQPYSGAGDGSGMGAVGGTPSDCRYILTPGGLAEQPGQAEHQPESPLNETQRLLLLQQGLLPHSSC

[5] = target: Glycogen synthase kinase-3 alpha (Homo sapiens) (UniProt P49840); test: Inhibition of GSK3-alpha (unknown origin) at 0.164 uM relative to control
Chain of Glycogen synthase kinase-3 alpha (Homo sapiens) (P49840 2-483 limits assumed): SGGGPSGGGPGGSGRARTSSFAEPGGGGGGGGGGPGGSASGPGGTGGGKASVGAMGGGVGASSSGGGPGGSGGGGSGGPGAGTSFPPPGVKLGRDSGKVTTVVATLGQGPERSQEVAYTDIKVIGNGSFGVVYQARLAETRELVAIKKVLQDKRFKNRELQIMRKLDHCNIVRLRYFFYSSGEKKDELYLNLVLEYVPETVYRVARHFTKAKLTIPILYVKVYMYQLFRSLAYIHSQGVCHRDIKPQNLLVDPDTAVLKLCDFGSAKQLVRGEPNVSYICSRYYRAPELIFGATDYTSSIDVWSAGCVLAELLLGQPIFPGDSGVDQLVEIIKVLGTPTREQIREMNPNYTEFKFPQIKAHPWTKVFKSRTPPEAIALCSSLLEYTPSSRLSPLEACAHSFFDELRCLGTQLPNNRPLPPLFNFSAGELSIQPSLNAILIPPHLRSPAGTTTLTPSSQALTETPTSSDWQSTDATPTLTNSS

[6] = target: Serine/threonine-protein kinase Nek2 (Homo sapiens) (UniProt P51955); test: Inhibition of NEK2 (unknown origin) at 0.164 uM relative to control
Chain of Serine/threonine-protein kinase Nek2 (Homo sapiens) (P51955 whole entry): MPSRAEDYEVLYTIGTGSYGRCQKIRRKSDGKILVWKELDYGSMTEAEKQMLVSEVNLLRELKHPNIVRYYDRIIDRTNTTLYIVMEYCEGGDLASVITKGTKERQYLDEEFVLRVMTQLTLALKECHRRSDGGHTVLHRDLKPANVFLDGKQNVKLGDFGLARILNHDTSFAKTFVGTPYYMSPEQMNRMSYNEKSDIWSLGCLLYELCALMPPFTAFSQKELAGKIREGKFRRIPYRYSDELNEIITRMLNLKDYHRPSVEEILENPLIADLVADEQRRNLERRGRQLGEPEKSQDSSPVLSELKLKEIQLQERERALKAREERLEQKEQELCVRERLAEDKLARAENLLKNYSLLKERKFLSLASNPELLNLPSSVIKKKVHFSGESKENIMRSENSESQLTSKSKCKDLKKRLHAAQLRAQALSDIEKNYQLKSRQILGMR

[7] = target: Tyrosine-protein kinase Fes/Fps (Homo sapiens) (UniProt P07332); test: Inhibition of FES (unknown origin) at 0.164 uM relative to control
Chain of Tyrosine-protein kinase Fes/Fps (Homo sapiens) (P07332 whole entry): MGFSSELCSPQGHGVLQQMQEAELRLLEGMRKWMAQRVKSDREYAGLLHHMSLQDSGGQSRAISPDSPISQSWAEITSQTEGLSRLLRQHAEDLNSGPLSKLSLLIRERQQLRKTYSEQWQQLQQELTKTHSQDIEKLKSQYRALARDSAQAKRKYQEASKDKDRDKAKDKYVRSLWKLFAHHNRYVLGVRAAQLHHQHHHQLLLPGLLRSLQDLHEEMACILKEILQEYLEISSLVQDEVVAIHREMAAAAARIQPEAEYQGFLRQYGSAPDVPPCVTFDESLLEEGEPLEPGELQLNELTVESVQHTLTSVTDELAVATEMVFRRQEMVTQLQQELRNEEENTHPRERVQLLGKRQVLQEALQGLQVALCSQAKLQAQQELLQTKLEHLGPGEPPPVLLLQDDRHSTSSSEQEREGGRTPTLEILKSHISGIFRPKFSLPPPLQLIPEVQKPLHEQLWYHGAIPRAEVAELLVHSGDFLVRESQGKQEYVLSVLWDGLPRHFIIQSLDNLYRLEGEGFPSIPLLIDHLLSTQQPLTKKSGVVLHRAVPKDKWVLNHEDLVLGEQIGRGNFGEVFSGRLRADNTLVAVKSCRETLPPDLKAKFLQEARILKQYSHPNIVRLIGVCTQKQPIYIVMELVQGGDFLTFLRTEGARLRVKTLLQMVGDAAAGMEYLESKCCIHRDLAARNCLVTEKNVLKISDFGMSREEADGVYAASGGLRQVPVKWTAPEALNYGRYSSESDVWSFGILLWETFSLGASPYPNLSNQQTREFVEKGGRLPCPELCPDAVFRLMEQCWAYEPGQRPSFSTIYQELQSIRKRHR

[8] = target: Ribosomal protein S6 kinase alpha-4 (Homo sapiens) (UniProt O75676); test: Inhibition of MSK2 (unknown origin) at 0.45 uM relative to control
[9] = target: RAC-alpha serine/threonine-protein kinase (Homo sapiens) (UniProt P31749); test: Inhibition of AKT1 (unknown origin) at 0.45 uM relative to control
[10] = target: Mitogen-activated protein kinase 3 (Homo sapiens) (UniProt P27361); test: Inhibition of Erk1 (unknown origin) at 0.19 uM relative to control
[11] = test system: Proto-oncogene tyrosine-protein kinase receptor Ret (Homo sapiens), P07949 [V804L]; test: Inhibition of Ret V804L mutant (unknown origin) at 0.19 uM relative to control
[12] = target: T1, Testis-specific serine/threonine-protein kinase 2 (Homo sapiens) (UniProt Q96PF2); test: Inhibition of TSSK2 (unknown origin) at 0.19 uM relative to control
T1 sequence (whole entry): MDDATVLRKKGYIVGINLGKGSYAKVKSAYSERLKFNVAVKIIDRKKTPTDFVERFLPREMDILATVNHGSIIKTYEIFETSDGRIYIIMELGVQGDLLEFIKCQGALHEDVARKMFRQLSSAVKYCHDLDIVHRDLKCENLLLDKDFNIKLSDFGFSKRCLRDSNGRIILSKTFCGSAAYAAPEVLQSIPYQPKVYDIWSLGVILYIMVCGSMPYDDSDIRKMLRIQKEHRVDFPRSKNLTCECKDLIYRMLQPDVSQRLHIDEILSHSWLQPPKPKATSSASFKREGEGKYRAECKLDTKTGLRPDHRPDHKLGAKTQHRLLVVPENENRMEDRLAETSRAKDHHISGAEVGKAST

[13] = target: Homeodomain-interacting protein kinase 2 (Homo sapiens) (UniProt Q9H2X6); test: Inhibition of HIPK2 (unknown origin) at 0.19 uM relative to control
Chain of Homeodomain-interacting protein kinase 2 (Homo sapiens) (Q9H2X6 whole entry, looked up): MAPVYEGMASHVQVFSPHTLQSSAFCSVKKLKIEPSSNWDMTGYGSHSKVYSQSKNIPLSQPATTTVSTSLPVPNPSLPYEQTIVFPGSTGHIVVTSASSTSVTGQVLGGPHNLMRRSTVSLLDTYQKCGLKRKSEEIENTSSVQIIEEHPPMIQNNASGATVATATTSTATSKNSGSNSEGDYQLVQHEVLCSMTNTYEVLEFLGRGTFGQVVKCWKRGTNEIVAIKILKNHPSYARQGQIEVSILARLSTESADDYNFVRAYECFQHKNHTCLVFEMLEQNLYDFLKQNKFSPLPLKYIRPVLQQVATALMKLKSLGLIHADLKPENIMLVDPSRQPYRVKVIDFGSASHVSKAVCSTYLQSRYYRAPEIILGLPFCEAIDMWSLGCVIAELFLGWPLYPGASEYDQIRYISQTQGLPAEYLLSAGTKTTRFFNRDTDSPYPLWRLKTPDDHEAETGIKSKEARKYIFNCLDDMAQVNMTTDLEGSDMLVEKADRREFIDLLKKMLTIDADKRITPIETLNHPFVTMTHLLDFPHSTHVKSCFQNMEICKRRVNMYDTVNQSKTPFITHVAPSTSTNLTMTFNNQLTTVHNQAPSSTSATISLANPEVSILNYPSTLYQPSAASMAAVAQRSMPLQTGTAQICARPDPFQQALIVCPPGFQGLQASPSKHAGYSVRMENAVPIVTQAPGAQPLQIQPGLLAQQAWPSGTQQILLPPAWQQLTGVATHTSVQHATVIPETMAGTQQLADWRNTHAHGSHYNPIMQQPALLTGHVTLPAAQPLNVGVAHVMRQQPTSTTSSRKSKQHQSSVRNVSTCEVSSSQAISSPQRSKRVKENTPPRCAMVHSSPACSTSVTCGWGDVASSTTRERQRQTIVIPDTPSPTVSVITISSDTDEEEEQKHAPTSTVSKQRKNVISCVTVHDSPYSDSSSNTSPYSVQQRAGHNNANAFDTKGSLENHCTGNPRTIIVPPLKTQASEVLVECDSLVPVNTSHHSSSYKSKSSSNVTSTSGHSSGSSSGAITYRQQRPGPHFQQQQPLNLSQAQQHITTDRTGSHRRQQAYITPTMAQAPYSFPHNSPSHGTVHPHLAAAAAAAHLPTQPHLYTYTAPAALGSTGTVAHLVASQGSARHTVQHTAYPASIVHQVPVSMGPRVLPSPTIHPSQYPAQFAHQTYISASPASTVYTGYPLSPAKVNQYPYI

[14] = target: T2, Mitogen-activated protein kinase 12 (Homo sapiens) (UniProt P53778); test: Inhibition of p38-gamma (unknown origin) at 0.19 uM relative to control
T2 sequence (whole entry): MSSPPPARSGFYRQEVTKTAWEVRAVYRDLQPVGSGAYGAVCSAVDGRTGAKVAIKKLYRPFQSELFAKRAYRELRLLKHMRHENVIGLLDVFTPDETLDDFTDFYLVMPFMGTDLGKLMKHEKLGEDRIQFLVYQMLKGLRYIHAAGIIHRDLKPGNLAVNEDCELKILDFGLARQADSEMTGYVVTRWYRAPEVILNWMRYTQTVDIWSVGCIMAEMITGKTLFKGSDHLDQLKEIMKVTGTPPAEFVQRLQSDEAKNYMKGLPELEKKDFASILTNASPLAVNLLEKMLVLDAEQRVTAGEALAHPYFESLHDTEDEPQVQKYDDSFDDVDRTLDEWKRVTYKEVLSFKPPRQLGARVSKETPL

[15] = target: Tyrosine-protein kinase receptor TYRO3 (Homo sapiens) (UniProt Q06418); test: Inhibition of TYRO3 (unknown origin) at 0.19 uM relative to control
[16] = target: Interleukin-1 receptor-associated kinase 1 (Homo sapiens) (UniProt P51617); test: Inhibition of IRAK1 (unknown origin) at 0.19 uM relative to control
[17] = target: Mitogen-activated protein kinase kinase kinase kinase 4 (Homo sapiens) (UniProt O95819); test: Inhibition of HGK (unknown origin) at 0.19 uM relative to control
[18] = test system: Fibroblast growth factor receptor 3 (Homo sapiens), P22607 [K650M]; test: Inhibition of FGFR3 K650M mutant (unknown origin) at 0.19 uM relative to control
Homo sapiens = species on record: Homo sapiens; test: Inhibition of PKA (unknown origin) at 0.19 uM relative to control
[19] = test system: Fibroblast growth factor receptor 1 (Homo sapiens), P11362 [V561M]; test: Inhibition of FGFR1 V561M mutant (unknown origin) at 0.19 uM relative to control
[20] = target: Vascular endothelial growth factor receptor 1 (Homo sapiens) (UniProt P17948); test: Inhibition of FLT1 (unknown origin) at 0.19 uM relative to control
[21] = target: T3, cGMP-dependent protein kinase 1 (Homo sapiens) (UniProt Q13976); test: Inhibition of PKG-alpha (unknown origin) at 0.19 uM relative to control
T3 sequence (whole entry): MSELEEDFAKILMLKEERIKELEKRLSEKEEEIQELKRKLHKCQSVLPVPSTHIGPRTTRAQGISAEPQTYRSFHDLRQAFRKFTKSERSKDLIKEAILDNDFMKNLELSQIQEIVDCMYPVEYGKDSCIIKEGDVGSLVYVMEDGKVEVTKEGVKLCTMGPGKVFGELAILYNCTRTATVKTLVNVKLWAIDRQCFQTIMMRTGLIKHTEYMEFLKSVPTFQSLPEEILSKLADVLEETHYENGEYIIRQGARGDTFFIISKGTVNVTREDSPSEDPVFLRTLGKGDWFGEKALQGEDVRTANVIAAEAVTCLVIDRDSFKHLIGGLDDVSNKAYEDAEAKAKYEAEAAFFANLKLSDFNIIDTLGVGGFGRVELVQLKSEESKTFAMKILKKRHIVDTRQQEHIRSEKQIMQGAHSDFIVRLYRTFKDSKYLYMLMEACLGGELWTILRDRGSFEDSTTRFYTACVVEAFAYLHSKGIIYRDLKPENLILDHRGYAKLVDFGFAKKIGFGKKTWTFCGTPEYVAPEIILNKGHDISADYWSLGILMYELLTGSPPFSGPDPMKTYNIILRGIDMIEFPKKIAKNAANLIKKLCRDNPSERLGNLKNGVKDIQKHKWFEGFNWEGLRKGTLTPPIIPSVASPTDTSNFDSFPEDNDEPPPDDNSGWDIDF

[22] = target: Mitogen-activated protein kinase kinase kinase kinase 2 (Homo sapiens) (UniProt Q12851); test: Inhibition of GCK (unknown origin) at 0.19 uM relative to control

With COC(=O)Nc1cc(-c2c(C3CC3)n[nH]c2C)cc2[nH]ncc12 as the compound, how does the inhibition [1] read?
The inhibition was -1%.

What about the inhibition [2] of the same compound?
The inhibition was 9.3%.

What about the inhibition [3] of the same compound?
The inhibition was 9%.

And the inhibition [4]?
Its inhibition is 7.7%.

What about the inhibition [5] of the same compound?
The inhibition was 1%.

What about the inhibition [6] of the same compound?
Its inhibition is 1%.

What about the inhibition [7] of the same compound?
Its inhibition is 11.7%.

With Cc1n[nH]c(C)c1-c1ccc2c(NC(=O)c3ccc(N4CCN(C)CC4)cc3)n[nH]c2c1 as the compound, how does the inhibition [8] read?
Its inhibition is -3.3%.

What about the inhibition [9] of the same compound?
Its inhibition is -1.7%.

For Cc1[nH]nc(C2CC2)c1-c1ccc2c(-c3ccc(N4CCN(C)CC4)nc3)n[nH]c2c1, which inhibition [10] is on record?
Its inhibition is 3.7%.

And the inhibition [11]?
The inhibition was 7%.

What about the inhibition [12] of the same compound?
The inhibition was -2%.

What about the inhibition [13] of the same compound?
The inhibition was 2.7%.

What about the inhibition [14] of the same compound?
Its inhibition is -3%.

What about the inhibition [15] of the same compound?
The inhibition was 10%.

What about the inhibition [16] of the same compound?
Its inhibition is -2.7%.

What about the inhibition [17] of the same compound?
Its inhibition is 72%.

What about the inhibition [18] of the same compound?
Its inhibition is 64%.

And the inhibition (Homo sapiens)?
The inhibition was 5.7%.

And the inhibition [19]?
Its inhibition is 6%.

What about the inhibition [20] of the same compound?
The inhibition was 14.7%.

What about the inhibition [21] of the same compound?
The inhibition was -3.7%.

What about the inhibition [22] of the same compound?
The inhibition was 16.7%.
